# Earlier results as cited in US20100242127A1, “METHODS TO IDENTIFY MODULATORS OF B-RAF PROTEIN KINASE AND THEIR USE FOR THE TREATMENT OF ANXIETY AND DEPRESSION” (HELMHOLTZ ZENTRUM MUNCHEN, priority 2007, published 2010).
# Tested on: Mek
# Settings: mouse brain
substance,measurement,setting,value
PD184161,behavioural phenotype after acute blockade of Mek,,depressive-like phenotype
same,effect on behavioural actions of antidepressants,acute,counteract the behavioural actions of antidepressants
